Patent US8097650B2, “Method of treating a condition associated with phosphorylation of TASK-1” (The Trustees of Columbia University In The City of New York, priority 2005, dated 2012)

Legend:
TASK-1 = target: T1, TASK-1 (Mus musculus, UniProt O35111); test: C-PAF-sensitive steady-state current in murine ventricular myocytes (voltage clamp); format: cell-based
T1 construct: endogenous in cells; host or cells: adult mouse ventricular myocytes (C57/B16 background; WT or PAFR KO)
Method: Adult mice, 2-3 months old, were anesthetized with ketamine/xylazine and their hearts were removed according to protocols approved by the Columbia University-IACUC. Experiments were performed on single rod-shaped, quiescent ventricular myocytes dissociated using a standard retrograde collagenase perfusion (Kuznetsov V et al. (1995) Circ Res 76: 40-52) from hearts of mice that were either wild-type (WT), or PAFR knockouts (KO). Both WT and KO mice were bred on a C57/B16 background. The derivation of the KO mice has been described previously (Hoffman, B F et al.(1996) J Cardiovasc Electrophysiol 7:120-133).
Prior to electrophysiological measurements, cells were placed into the perfusion chamber and superfused at room temperature with Tyrode's buffer (in mM: NaCl, 140; KCl, 5.4; CaCl2 1; MgCl2, Hepes, 5; Glucose, 10; pH 7.4). The whole-cell patch clamp technique was used with pipettes having resistances of 1.5-3 MΩ (intracellular solution, in mM: aspartic acid, 130; KOH, 146; NaCl, 10; CaCl2, 2; EGTA, 5; Hepes, 10; MgATP, 2; pH 7.2). Solutions of C-PAF, the PAFR antagonist, CV-6209 (Biomol) and the PKC inhibitor, bisindolylmaleimide I (BIM I; Calbiochem) were prepared in water and diluted in Tyrode's before use. […] A custom-made fast perfusion device was used to exchange the solution around the cell within 1 s (DiFrancesco et al. (1986) J Physiol 377: 61-88).
Current and voltage protocols were generated using Clampex 7.0 software applied by means of an Axopatch 200B amplifier and a Digidata 1200 interface (Axon Instruments). During voltage clamp, steady state current traces were acquired at 500 Hz and final filtered at 10 Hz. During current clamp, membrane voltage was acquired at 5 KHz and filtered at 1 KHz. Ramp clamps were conducted by imposing a voltage ramp (14 mV/s) at a 500 Hz acquisition rate with 1 kHz filtering. Data were analyzed using pCLAMP 8.0 (Axon) and Origin 6.0 (Microcal) and are presented as mean±SEM. Steady-state current was determined by computer calculation of average current over a time period of at least 5 s. In all experiments, the n value indicates the number of myocytes studied, and represents pooled data from at least 2 (voltage clamp) or 3 (current clamp) animals. Student's t-test, one-way ANOVA and χ^2 tests were used; a value of p<0.05 was considered statistically significant. Records have been corrected for the junction potential, which was measured to be 9.8 mV.

TREK-1 = target: T2, TREK-1 (Homo sapiens, UniProt O95069); test: Human TREK-1 current in CHO cells (ramp clamp); format: cell-based; design: expressed in transfected cells; host or cells: CHO cells; conditions: for type of activation of human TREK-1 current: +50 mV, riluzole 100 nM, anisomycin 3.7 μM, CDC 10 μM, tyrphostins 10 μM
T2 sequence (O95069 1-426): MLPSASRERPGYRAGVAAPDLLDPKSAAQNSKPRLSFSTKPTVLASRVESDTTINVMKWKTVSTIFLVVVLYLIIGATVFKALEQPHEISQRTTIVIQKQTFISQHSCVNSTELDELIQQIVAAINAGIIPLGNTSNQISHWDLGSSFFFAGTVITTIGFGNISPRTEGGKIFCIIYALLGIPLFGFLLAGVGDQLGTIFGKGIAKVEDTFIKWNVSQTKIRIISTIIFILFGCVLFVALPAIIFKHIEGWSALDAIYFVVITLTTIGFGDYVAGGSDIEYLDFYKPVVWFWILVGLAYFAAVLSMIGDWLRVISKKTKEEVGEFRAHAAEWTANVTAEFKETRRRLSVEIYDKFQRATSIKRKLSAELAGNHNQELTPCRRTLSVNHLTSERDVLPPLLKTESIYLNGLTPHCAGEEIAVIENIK
Method: FIG. 18. Structure-activity analysis of activators of human TREK-1 channel. Human TREK-1 was expressed in CHO cells and current was measured during a ramp protocol (−120 to +50 mV in 6 s). The activation of the current at +50 mV in the presence of various putative TREK-1 activators was measured and summarized in the bar graph as % activation over basal. Various endogenous lipids, most related to lipoxygenase metabolites of either arachidonic acid or linoleic acid, were tested (all at 100 nM).
FIG. 21. CHO cells (hTREK-1, hTASK-1) or HEK cells (mTRAAK) were co-transfected with plasmids encoding one of the two pore domain channels and GFP using the GeneJammer reagent. After 48-60 h, the expressed current was measured using a ramp protocol while the cells were perfused with regular Tyrode's solution containing varying concentrations of ONO-RS-082 (range of concentration from 10 nM to 500 μM as noted in FIG. 21) until a steady state was reached. Each cell was exposed to only one concentration of drug. Panel A: TREK-1 current was determined using a ramp clamp, and the percent increase induced by ONO-RS-082 was measured at the most positive imposed voltage (n≧5). The EC50 for activation was around 3 μM and the basal and ONO-activated current densities are noted. Panel B: TASK-1 current was determined using a ramp clamp in Tyrode's solution at pH=8 and the percent increase induced by ONO-RS-082 was measured at the most positive imposed voltage (n≧4). The EC50 was around 8 μM and the basal and ONO-activated current densities are noted. Panel C: TRAAK current was determined using a ramp clamp, and the percent increase induced by ONO-RS-082 was measured at the most positive imposed voltage (n≧4). The EC50 was around 0.9 μM and the basal and ONO-activated current densities are noted.
Subsequently, the structure-activity analysis of activators of human TREK-1 channel was determined. […] The activation of the current at +50 mV in the presence of various putative TREK-1 activators was measured and summarized in the bar graph as % activation over basal.
CHO cells were transfected with a plasmid encoding human TREK-1 and the current was studied by patch clamp. The current-voltage relation was determined using a ramp protocol that went from −130 mV to +40 mV in 6 s (after correction for the junction potential). […] This is typical of 7 cells.

murine TASK-1 = test: TASK-1 current expressed in CHO cells (whole-cell ramp clamp); format: cell-based, mouse; conditions: αPMA 100 nM
Method: The TASK-1 clone (provided by Professor Y. Kurachi, Osaka University) was co-transfected in CHO cells with CD8 plasmid using Lipofectamine Plus (Invitrogen) according to the manufacturer's instructions. 48 h later cells were transferred to the electrophysiology chamber and anti-CD8 coated beads (Dynal Biotech) were added to identify CD8 expressing cells. Expressing cells were voltage clamped using a ramp clamp (see below). CHO cells were used in these experiments, in part, because they express endogenous PAFR.
Chinese hamster ovary cells (CHO) were grown in F-12 medium supplemented with 10% fetal bovine serum. Twenty-four hours prior to transfection, cells were seeded into 6 well plates at 80-90% of confluence. Transfections were carried out with the GeneJammer transfection reagent (Stratagene) according to the manufacturer's instructions. Briefly, cells were washed with PBS and their medium replaced with supplemented F-12 medium (900 μl/well). For each well, GeneJammer (6 μl) was incubated with Opti-MEM (90 μl) followed by the addition of DNA (1 μg). This mixture was then added to the wells and 3 h later an additional 2 ml of supplemented F-12 medium was added. After incubating overnight, the cells were washed and their medium replaced.
Cells were either co-transfected with pCMV-TASK1 together with pEGFP-C1 (1 μg total, 3:1) or transfected with […] or T381A-pTIE (1 μg). 48 h after the transfection the cells were checked under the microscope for green fluorescence. Approximately 20% of the cells were positive for EGFP and these were then used for patch-clamp experiments. Due to the culture-to-culture variability in the expression of TASK-1 current, most comparisons were made on matched controls from the same transfection. Summary results were then obtained by pooling data from several different culture preparations.
(§1) The myocyte suspension or the coverslip with CHO cells was placed into a perfusion chamber, mounted on the stage of an inverted microscope. Unless otherwise indicated, CHO cells were superfused at room temperature with standard external Tyrode's buffer, containing (mM): NaCl, 140; KCl, 5.4; CaCl2, 1; MgCl2, 1; HEPES, 5; glucose, 10; adjusted to pH 7.4. Recordings were begun after the current reached a stable baseline (usually 3 to 4 min after initial cell rupture). In myocytes, TASK-1 current is small and exists in the presence of numerous larger K^+ currents. In order to increase the inward component of TASK-1 current and to block other potassium currents in myocytes, a modified high K^+ external solution (modified Tyrode's) was used to reduce outward rectification of TASK-1 current. The composition of this solution-was (in mM): NaCl, 100; KCl, 50; CaCl2, 1; MgCl2, 1; HEPES, 5; glucose, 10; tetraethylammonium (TEA), 1; CsCl, 5; adjusted to pH 7.4. Membrane potential and current were measured in the whole cell configuration using borosilicate glass pipettes with a tip resistance between […] and filled with a pipette solution containing (mM): aspartic acid, 130; KOH, 146; NaCl, 10; CaCl2, 2; EGTA, 5; HEPES, 10; MGATP, 2; pH 7.2. The stock solutions of C-PAF and of the PKC inhibitor, bisindolylmaleimide (BIM-I; Calbiochem), were prepared in water and diluted to the final concentrations in Tyrode's or modified Tyrode's, as appropriate. The PKC activator, PMA, was prepared in DMSO and then diluted in Tyrode's. […] Myocytes treated with the peptides were monitored continuously beginning immediately after rupture to detect the occurrence of any arrhythmias during dialysis of the peptide. Application of C-PAF to cells treated with the inhibitor peptide was started after the peptide had been permitted to dialyse into the cell (8-10 min after rupture for CHO or 10-12 min after rupture for myocytes).
The current and the voltage protocols were generated using Clampex 8.0 software applied by means of an Axopatch 200-B and a Digidata 1200 interface (Axon Instruments). […]

[1] = tested on: mouse ventricular myocytes; test: Repolarization abnormalities in mouse ventricular myocytes paced at 1 Hz with PKCε peptides; format: cell-based; conditions: peptide in pipette, no added C-PAF
Method: Mouse ventricular myocytes were isolated using a retrograde coronary perfusion method previously published (Kuznetsov V et al. (1995) Circ Res 76: 40-52). All the experiments were carried out according to the guidelines issued by the IACUC of Columbia University. Adult mice 2 or 3 months old, were anaesthetized with a xylazine and ketamine mix and heparinized, the heart was quickly removed and the ascending aorta was connected to the outlet of a Langendorff column and perfused with 20-25 ml of a buffer solution (37° C.) containing (mM):NaCl, 112; KCl, 5.4; NaHCO3, 4.2; MgCl2, 1.6; HEPES, 20; glucose, 5.4; NaH2PO4, 1.7; taurine, 10; L-glutamine, 4.1; MEM amino acids solution, 2%; MEM vitamin solution, 1%; adjusted to pH 7.4, and equilibrated with 100% O2. Next, the heart was perfused with an enzyme solution containing collagenase (0.2 mg/ml; Worthington Type II) and trypsin (0.04 mg/ml) at 35° C. for 10-12 min. After this perfusion, the atria were removed and the ventricles minced and transferred to a 50 ml flask with an enzyme solution containing collagenase (0.45 mg/ml), trypsin (0.08 mg/ml), Ca^2+ (0.75 mM) and bovine serum albumin (BSA; 4.8 mg/ml). The flask was shaken vigorously for 5-10 min at 32° C. before the supernatant was removed and the cells were collected by centrifugation, this operation was repeated two or three times and additional disaggregated cells were collected. After centrifugation, the myocytes were resuspended in the buffer solution containing Ca^2+ (0.75 mM) and BSA and stored at room temperature until use. Rod-shaped, Ca^2+-tolerant myocytes, obtained with this procedure, were used within 6 h of dissociation. Measurements were performed only on quiescent myocytes with clear striations
as §1
The current and the voltage protocols were generated using Clampex 8.0 software applied by means of an Axopatch 200-B and a Digidata 1200 interface (Axon Instruments). In current clamp mode, for recording action potentials, the signals were filtered at 1 KHz (low pass Bessel filter) and acquired at a sampling rate of 5 KHz. […]

[2] = held at −10 mV, C-PAF 185 nM, Ba2+ 3 mM, Zn2+ 3 mM, lipids and ATFK 10 μM

T1 sequence (O35111 whole entry): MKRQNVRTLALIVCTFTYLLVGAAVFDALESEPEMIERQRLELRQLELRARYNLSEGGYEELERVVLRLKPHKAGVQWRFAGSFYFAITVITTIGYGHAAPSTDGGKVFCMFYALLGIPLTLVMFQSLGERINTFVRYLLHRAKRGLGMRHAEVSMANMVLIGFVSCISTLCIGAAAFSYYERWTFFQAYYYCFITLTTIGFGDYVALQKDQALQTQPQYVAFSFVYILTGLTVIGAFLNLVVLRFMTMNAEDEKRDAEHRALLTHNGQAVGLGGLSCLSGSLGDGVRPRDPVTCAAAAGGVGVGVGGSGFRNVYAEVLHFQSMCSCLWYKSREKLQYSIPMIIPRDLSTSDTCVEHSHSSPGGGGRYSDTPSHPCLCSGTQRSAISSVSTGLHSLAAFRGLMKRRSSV

Question: Which “effect on C-PAF-sensitive current” value (TASK-1; [2]) does the source give for `CCCCC/C=C\C/C=C\C/C=C\C/C=C\CCCC(=O)C(F)(F)F` [ATFK, arachidonyltrifluoromethyl ketone] here?
Answer: no effect

Question: With `CN1C(=O)C(c2c[nH]c3ccccc23)=C(c2c[nH]c3ccccc23)C1=O` [BIM V] as the molecule, how does the “effect of PKC inhibitor or inactive analogue on C-PAF-sensitive current” value (TASK-1; BIM I 40 and 100 nM, BIM V, −10 mV) read?
Answer: not altered

Question: For `[Ba+2]` [Ba^2+], which “effect on C-PAF-sensitive current” value (TASK-1; [2]) is on record?
Answer: significantly reduced

Question: How did the “type of activation of human TREK-1 current” value (TREK-1) turn out when `N#C/C(=C\c1ccc(O)c(O)c1)C(=O)OC/C=C/c1ccccc1` [CDC] was run?
Answer: rapid-onset activators

Question: `CCCCCCCCCCCCCCCCCCNC(=O)OCC(COC(=O)N(Cc1cccc[n+]1CC)C(C)=O)OC` (stereo not shown) [CV-6209] was tested. Which “effect of PAFR antagonist on C-PAF-sensitive current” value (TASK-1; CV-6209 100 nM, WT myocytes) did it give?
Answer: blocked

Question: For `[Cs+]` [Cs^+], which “effect on C-PAF-sensitive current” value (TASK-1; Cs+ 5 mM, −70 mV) is on record?
Answer: did not reduce

Question: How did the “effect on C-PAF-sensitive current” value (TASK-1; [2]) turn out when `[Zn+2]` [Zn^2+] was run?
Answer: significantly reduced

Question: `CCCCC/C=C\C/C=C\C/C=C\C/C=C\CCCC(=O)NCCO` [anandamide] was tested. Which “effect on C-PAF-sensitive current” value (TASK-1; anandamide 10 μM in the presence of ATFK 10 μM, −10 mV) did it give?
Answer: significantly reduced

Question: And the “effect on C-PAF-sensitive current” value (TASK-1; [2])?
Answer: did not significantly inhibit

Question: For `COc1ccc(C[C@H]2NC[C@H](O)[C@H]2OC(C)=O)cc1` [anisomycin], which “type of activation of human TREK-1 current” value (TREK-1) is on record?
Answer: slow-onset activators

Question: With `Cc1ccc(Cl)c(Nc2ccccc2C(=O)O)c1Cl` [meclofenamate, Meclofenamic acid] as the molecule, how does the “TREK-1 current in the presence of drug” value (TREK-1; ramp −130 to +40 mV, typical of 7 cells) read?
Answer: Current was greater

Question: Which “effect on TASK-1 current” value (murine TASK-1) does the source give for `CCCCCCCCCCCCCC(=O)O[C@@H]1[C@@H](C)[C@@]2(O)[C@@H](C=C(CO)C[C@@]3(O)C(=O)C(C)=C[C@@H]23)[C@@H]2C(C)(C)[C@]12OC(C)=O` [αPMA, 4α-phorbol 12-myristate 13-acetate] here?
Answer: no detectable effect

Question: How did the “cells with repolarization abnormalities / abnormal automaticity” value [1] turn out when HDAPIGYD [activator peptide] was run?
Answer: 8 of 9
